In experiment [1] the target is T1, human EAA2a receptor (Homo sapiens, UniProt Q16478).
T1 construct: This modification permitted the full length cDNA insert to be released as a 3.7 kb NotI/NotI fragment; expressed in transfected cells; host or cells: COS-1 (ATCC CRL 1650), transient, plasmid pcDNA1/humEAA2a; membranes
T1 sequence (Q16478 15-980): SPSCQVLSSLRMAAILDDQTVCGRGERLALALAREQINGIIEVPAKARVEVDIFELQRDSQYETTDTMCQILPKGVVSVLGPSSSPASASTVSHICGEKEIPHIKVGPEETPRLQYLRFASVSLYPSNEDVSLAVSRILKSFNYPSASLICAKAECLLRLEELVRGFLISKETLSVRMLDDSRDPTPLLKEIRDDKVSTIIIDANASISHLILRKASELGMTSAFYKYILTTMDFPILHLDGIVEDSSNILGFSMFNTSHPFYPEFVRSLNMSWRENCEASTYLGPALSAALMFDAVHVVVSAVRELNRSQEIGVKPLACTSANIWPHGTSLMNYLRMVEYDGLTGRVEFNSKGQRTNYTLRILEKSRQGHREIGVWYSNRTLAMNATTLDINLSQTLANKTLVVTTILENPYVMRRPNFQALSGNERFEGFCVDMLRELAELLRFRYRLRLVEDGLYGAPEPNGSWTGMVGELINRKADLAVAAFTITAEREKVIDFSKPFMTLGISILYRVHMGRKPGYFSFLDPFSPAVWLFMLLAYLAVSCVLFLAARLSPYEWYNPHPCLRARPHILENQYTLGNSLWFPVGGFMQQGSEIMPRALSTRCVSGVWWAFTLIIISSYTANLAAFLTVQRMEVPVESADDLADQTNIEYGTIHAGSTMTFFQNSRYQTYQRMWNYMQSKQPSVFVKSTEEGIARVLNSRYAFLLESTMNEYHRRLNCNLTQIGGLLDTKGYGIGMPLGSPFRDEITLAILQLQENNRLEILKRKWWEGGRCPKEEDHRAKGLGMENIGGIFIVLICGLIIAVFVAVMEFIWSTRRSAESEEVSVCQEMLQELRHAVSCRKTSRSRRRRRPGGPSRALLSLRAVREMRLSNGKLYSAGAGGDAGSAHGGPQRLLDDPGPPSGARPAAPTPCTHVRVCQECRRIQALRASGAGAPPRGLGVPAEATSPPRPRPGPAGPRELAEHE
Nature of the experiment: [3H]-kainate binding assay (Scatchard analysis and displacement) on membranes of transfected COS-1 cells. Conditions: for rank order of potency in displacement of [3H]-labelled kainate binding: FIG. 6. How it is done: (§1) Transfected cells in the frozen state were resuspended in ice-cold distilled water using a hand homogenizer and centrifuged for 20 minutes at 50,000 g. The supernatant was discarded and the membrane pellet stored frozen at -70° C.
(§2) COS cell membrane pellets were suspended in ice cold 50 mM Tris-HCl (pH 7.55, 5C) and placed inside Spectrapor 7 (EDTA-treated, sulfur-fee) dialysis tubing. The suspension was placed in 4 liters of ice cold 50 mM Tris-HCl (pH 7.55, 5C) and dialyzed for 16-24 hours at 5C in order to remove endogenous glutamate that would compete for binding. The tissue suspension was recovered from the tubing along with a small volume of buffer used to rinse the tubing. This resultant membrane preparation was used as tissue source for binding experiments described below. Proteins were determined using the Pierce Reagent with BSA as standard.
Binding assays were then performed, using an amount of COS-derived membrane equivalent to from 25-100 ug as judged by protein determination and selected radiolabelled ligand. In particular, glutamate binding assays entailed formation of an incubation mixture consisting of 25-100 ug of tissue protein, and [3.4-3H]L-glutamic acid (47.3 Ci/mmole, 10 nM final) in 50 mM Tris-HCl (pH 7.55, 5C) in 1 ml final volume. Non-specific binding was in the presence of 1 mM L-glutamate. Samples were incubated on ice for 60 minutes in plastic minivials. Bound and free ligand were separated by centrifugation for 10 minutes at 50,000 g (4° C.). Tissue pellets were washed superficially with 2×6 ml of ice cold incubation buffer. Pellets were solubilized and counted in 5 ml of Beckman Ready Protein Scintillation cocktail.
For kainate binding assays, incubation mixtures consisted of 25-100 μg tissue protein and [vinylidene-3H] kainic acid (58 Ci/mmole, 5 nM final) in the cold incubation buffer, 1 ml final volume. Non-specific binding was in the presence of 1 mM L-glutamate. Samples were incubated as for the glutamate binding assays, and bound and free ligand were separated by rapid filtration using a Brandel cell harvester and GF/B filters pro-soaked in ice-cold 0.3% polyethyleneimine. Filters were washed twice in 6 ml of the cold incubation buffer, then placed in scintillation vials with 5 ml of Beckman Ready-Safe scintillation cocktail for counting.

Experiment [2] has as its target T1, human EAA2a receptor. Nature of the experiment: [3H]-glutamate binding assay on membranes of transfected COS-1 cells. Conditions: [3H]-glutamate at 10 nM; non-specific binding with 1 mM L-glutamate. How it is done:
as §1, §2
Binding assays were then performed, using an amount of COS-derived membrane equivalent to from 25-100 ug as judged by protein determination and selected radiolabelled ligand. In particular, glutamate binding assays entailed formation of an incubation mixture consisting of 25-100 ug of tissue protein, and [3.4-3H]L-glutamic acid (47.3 Ci/mmole, 10 nM final) in 50 mM Tris-HCl (pH 7.55, 5C) in 1 ml final volume. […] Pellets were solubilized and counted in 5 ml of Beckman Ready Protein Scintillation cocktail.

pKd: −log10 of the molar value.

These results are taken from patent publication US5981704A, “Kainate-binding, human CNS receptors of the EAA2 family” (Allelix Biopharmaceutical, priority 1997, dated 1999).

As for `C/C(=C/C=C/[C@@H](C)C(=O)O)[C@H]1CN[C@H](C(=O)O)[C@H]1CC(=O)O` [domoate], the “rank order of potency in displacement of [3H]-labelled kainate binding” value (“rank order of potency” below) at human EAA2a receptor [1] is “kainate>domoate>quisqualate>glutamate>DNQX>dihydrokainate>CNQX>AMPA”.

For the compound `C=C(C)[C@H]1CN[C@H](C(=O)O)[C@H]1CC(=O)O` [kainate, kainic acid], on human EAA2a receptor [1], the pKd was 8.54 and the “rank order of potency” value is on record as “kainate>domoate>quisqualate>glutamate>DNQX>dihydrokainate>CNQX>AMPA”. Further, on human EAA2a receptor [1] (Scatchard analysis of [3H]-kainate binding), the “maximum binding (Bmax)” value was determined as 691 fmol/mg protein. Moreover, the “specific binding of labelled ligand” value at human EAA2a receptor [1] ([3H]-kainate at 5 nM, non-specific binding with 1 mM L-glutamate) is “specific”. In addition, the “kainate binding affinity (in words)” value on human EAA2a receptor [1] (nanomolar range) was “high affinity”.

On to `N[C@@]1(C(=O)O)CC[C@@H](C(=O)O)C1` [1S,3R-ACPD], for which the displacement of kainate entry at human EAA2a receptor [1] (concentrations up to 100 uM) was “No displacement”.

As for `N#Cc1cc2[nH]c(=O)c(=O)[nH]c2cc1[N+](=O)[O-]` [CNQX], on human EAA2a receptor [1], the “rank order of potency” value is given as “kainate>domoate>quisqualate>glutamate>DNQX>dihydrokainate>CNQX>AMPA”.

For the compound `CC(C)[C@H]1CN[C@H](C(=O)O)[C@H]1CC(=O)O` [dihydrokainate], on human EAA2a receptor [1], the “rank order of potency” value was “kainate>domoate>quisqualate>glutamate>DNQX>dihydrokainate>CNQX>AMPA”.

As for `N[C@@H](CCC(=O)O)C(=O)O` [glutamate, L-glutamic acid], the “rank order of potency” value at human EAA2a receptor [1] was “kainate>domoate>quisqualate>glutamate>DNQX>dihydrokainate>CNQX>AMPA”. Moreover, the “specific binding of labelled ligand” value on human EAA2a receptor [2] was “specific”.

`O=c1[nH]c2cc([N+](=O)[O-])c([N+](=O)[O-])cc2[nH]c1=O` [DNQX]: the “rank order of potency” value on human EAA2a receptor [1] was “kainate>domoate>quisqualate>glutamate>DNQX>dihydrokainate>CNQX>AMPA”.

Consider `N[C@@H](Cn1oc(=O)[nH]c1=O)C(=O)O` [quisqualate], for which the “rank order of potency” value on human EAA2a receptor [1] is recorded as “kainate>domoate>quisqualate>glutamate>DNQX>dihydrokainate>CNQX>AMPA”.
